How the values were obtained:
[1] = system: HCC1937 cells; experiment: HCC1937 viability (MTS); assay type: cell-based, human; settings: HCC1937 (low to undetectable MUC1-C), 3 d
Method: FIGS. 16A-D—Effects of apigenin on breast cancer cells without and with endogenous MUC1 expression. (FIG. 16A) Lysates from human MCF-7, HCC1937 and BT474 cells were immunoblotted with the indicated antibodies. (FIG. 16B) BT474 cells were treated with indicated concentrations of apigenin and baicalein for 3 d, washed and then treated for an additional 3 d. Lysates were immunoblotted with the indicated antibodies. (FIG. 16C) BT474 (triangles) and HCC1937 (squares) cells were treated with apigenin for 3 d. Viable cell numbers were determined by MTS assay. The results (mean+SD of 3 determinations) are expressed as percentage of control growth in the presence of DMSO. (FIG. 16D) BT474 cells were plated at a density of 5000 cells/6 cm dish. At 24 h after seeding, DMSO or apigenin at concentrations of 25, 50 and 75 μM was added to the medium. After 2 weeks, colonies were stained with crystal violet. The results (mean+SD of 3 determinations) are expressed as percentage of control colony formation in the presence of DMSO.

[2] = system: ZR-75-1/vector cells; experiment: Viable cell number by trypan blue exclusion, ZR-75-1/vector; assay type: cell-based, human; settings: 5 μM
Method: (§1) FIGS. 4A-E. Selectivity of MUC1/CQC for MUC1 expressing breast cancer cells. (FIG. 4A) ZR-75-1 cells were stably infected with an empty lentivirus (vector) or one expressing a MUC1 siRNA. Lysates for the infected cells were immunoblotted with the indicated antibodies. (FIG. 4B) ZR-75-1/vector cells were left untreated (diamonds), and ZR-75-1/vector (squares) and ZR-75-1/MUC1 siRNA (triangles) cells were treated with 5 μM MUC1/CQC peptide for the indicated times. Viable cell number was determined by trypan blue exclusion. (FIG. 4C) 293 cells were left untreated (diamonds), and treated with 5 μM MUC1/CQC (squares) or MUC1/AQA (triangles) for the indicated times. Viable cell number was determined by trypan blue exclusion. (FIG. 4D) MCF-10A cells were left untreated (left panel), and treated with 5 μM MUC1/CQC (middle panel) or MUC1/AQA (right panel). At 3 d, cells were analyzed for cell cycle distribution. […] Viable cell number was determined by trypan blue exclusion.
(§2) Human breast cancer ZR-75-1, ZR-75-1/vector, ZR-75-1/MUC1siRNA (Ren et al., 2004) cell lines were grown in RPMI1640 medium supplemented with 10% heat-inactivated fetal bovine serum (HI-FBS), 100 U/ml penicillin, and 100 μg/ml streptomycin (Invitrogen) in a humidified incubator at 37° C. and 5% CO2. […] Viability was determined by trypan blue exclusion.

[3] = target: T1, MUC1-C (Homo sapiens, UniProt P15941); experiment: Immunoblot of nuclear MUC1-C levels in MCF-7 cells (peptide); assay type: cell-based; parameters: Human ZR-75-1 and MCF-7 breast cancer cells overexpress endogenous MUC1; endogenous in cells; host or cells: ZR-75-1; MCF-7; settings: MCF-7, 5 μM peptide, 3 d
T1 sequence (P15941 1098-1255 limits assumed): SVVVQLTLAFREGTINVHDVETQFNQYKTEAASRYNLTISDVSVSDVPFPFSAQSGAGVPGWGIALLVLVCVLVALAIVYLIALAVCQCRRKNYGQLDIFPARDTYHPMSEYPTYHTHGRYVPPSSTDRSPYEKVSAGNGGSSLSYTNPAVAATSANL
Method: FIGS. 2A-C. MUC1/CQC peptide blocks nuclear localization of MUC1-C. (FIG. 2A) ZR-75-1 cells were incubated with 5 μM FITC-labeled MUC1/CQC peptide for the indicated times and then analyzed by flow cytometry. The mean fluorescence index (MFI) is included in each of the panels. (FIGS. 2B-C) ZR-75-1 (FIG. 2B) and MCF-7 (FIG. 2C) cells were incubated in the presence of 5 μM MUC1/CQC or MUC1/AQA peptide for 3 d. Whole cell lysates (WCL) (left panels) and nuclear lysates (right panels) were immunoblotted with the indicated antibodies.
Whole cell and nuclear lysates were prepared as described (Leng et al., 2007). Soluble proteins were subjected to immunoprecipitation with anti-Flag (Sigma, St. Louis, Mo.). Immunoprecipitates and soluble proteins were analyzed by immunoblotting with anti-His (Cell Signaling Technology, Danvers, Mass.), anti-GFP (Millipore, Danvers, Mass.), anti-Flag, anti-MUC1-C (Ab1; NeoMarkers, Fremont, Calif.), anti-lamin B (EMD, La Jolla, Calif.) or anti-β-actin (Sigma). Reactivity was detected with horseradish peroxidase-conjugated second antibodies and chemiluminescence.

[4] = Body weight of nude mice given peptide; assay type: in vivo, nude (nu/nu) mice
Method: To determine if administration of the MUC1/CQC peptide is associated with effects on body weight, five female nude (nu/nu) mice were injected intraperitoneally (IP) once each day at a dose of 50 mg/kg. […] To assess anti-tumor activity, ZR-75-1 cells (1×10^7) were implanted subcutaneously into the flanks of nude mice. After 12 d, mice bearing tumors of approximately 150 mm^3 were treated with the MUC1/CQC peptide at doses of 10 and 50 mg/kg/d. As controls, mice were treated with vehicle alone or with the MUC1/AQA peptide. Administration of the MUC1/CQC peptide at 10 mg/kg/d×21 d slowed growth as compared to that obtained with the MUC1/AQA peptide given at 50 mg/kg/d (FIG. 5A). […] Consequently, treatment was stopped and the mice were monitored for regrowth. […] To assess in part the basis for the activity, tumors harvested from control and treated mice were examined by histopathology. […] Sections of the tumors were also stained with an antibody against MUC1.

[5] = system: MUC1-negative 293 cells; experiment: Viable cell number by trypan blue exclusion, 293 cells; assay type: cell-based, human; settings: 5 μM
Method: as §1, §2

nuclear MUC1-C levels [3]	SMILES	viability (MTS) [1]	growth / viable cell number [2]	body weight ([4]; 50 mg/kg IP once each day over 11 d)	body weight ([4]; next 28 d after stopping administration, data not shown)	growth / viable cell number [5]
	O=c1cc(-c2ccc(O)cc2)oc2cc(O)cc(O)c12 [Apigenin, 4′,5,7-trihydroxyflavone]	not				
down-regulation of nuclear MUC1-C levels	CC[C@H](C)[C@H](NC(=O)[C@H](CC(=O)O)NC(=O)[C@H](CC(C)C)NC(=O)[C@H](CCC(N)=O)NC(=O)CNC(=O)[C@H](Cc1ccc(O)cc1)NC(=O)[C@H](CC(N)=O)NC(=O)[C@H](CCCCN)NC(=O)[C@H](CCCNC(=N)N)NC(=O)[C@H](CCCNC(=N)N)NC(=O)[C@H](CS)NC(=O)[C@H](CCC(N)=O)NC(=O)[C@H](CS)NC(=O)[C@@H](CCCNC(=N)N)NC(=O)[C@@H](CCCNC(=N)N)NC(=O)[C@@H](CCCNC(=N)N)NC(=O)[C@@H](CCCNC(=N)N)NC(=O)[C@@H](CCCNC(=N)N)NC(=O)[C@@H](CCCNC(=N)N)NC(=O)[C@@H](CCCNC(=N)N)NC(=O)[C@@H](CCCNC(=N)N)NC(=O)[C@H](N)CCCNC(=N)N)C(=O)N[C@@H](Cc1ccccc1)C(=O)N1CCC[C@H]1C(=O)O [MUC1/CQC]		growth arrest and death	no apparent effect	no subsequent effect	no apparent effect

— patent US8952054B2, “Small molecule inhibitors of MUC1 and methods of identifying the same” (Dana-Farber Cancer Institute, Inc., priority 2010, dated 2015)
